How the values were obtained:
MCF7 = assay: Cytotoxicity against human MCF7 cells after 48 hrs by MTT assay; conditions: MCF7, 48 h
SMMC-7721 = assay: Cytotoxicity against human SMMC7721 cells after 48 hrs by MTT assay; conditions: SMMC-7721, 48 h
HL-60 = assay: Cytotoxicity against human HL60 cells after 48 hrs by MTT assay; conditions: HL-60, 48 h
SW480 = assay: Cytotoxicity against human SW480 cells after 48 hrs by MTT assay; conditions: SW480, 48 h
A549 = assay: Cytotoxicity against human A549 cells after 48 hrs by MTT assay; conditions: A549, 48 h

SMILES | IC50 (MCF7) [µM] | IC50 (SMMC-7721) [µM] | IC50 (HL-60) [µM] | IC50 (SW480) [µM] | IC50 (A549) [µM]
CCC(C)C(=O)[C@@]12C(=O)C3=C(OC(C)(C)C=C3)[C@@](CC=C(C)C)(C[C@H](CC=C(C)C)[C@@]1(C)CCC=C(C)C)C2=O (stereo partly drawn) | > 20 | > 20 | > 20 | > 20 | > 20
CC(C)=CCC[C@]1(C)[C@@H](CC=C(C)C)C[C@]23C[C@@H](C(C)C)OC2=C(CC=C(C)C)C(=O)[C@@]1(C(=O)C(C)C)C3=O | > 20 | > 20 | > 20 | > 20 | > 20
CCC(C)C(=O)[C@@]12C(=O)C(CC=C(C)C)=C3O[C@@H](C(C)(C)O)C[C@]3(C[C@H](CC=C(C)C)[C@@]1(C)CCC=C(C)C)C2=O (stereo partly drawn) | > 20 | > 20 | > 20 | > 20 | > 20
CC(C)=CCC[C@]1(C)[C@@H](CC=C(C)C)C[C@]23C[C@H](C(C)(C)O)OC2=C(CC=C(C)C)C(=O)[C@@]1(C(=O)C(C)C)C3=O | > 20 | > 20 | > 20 | > 20 | > 20
CC(C)=CCC[C@]1(C)[C@@H](CC=C(C)C)C[C@]23C[C@@H](C(C)(C)O)OC2=C(C[C@@H]2OC(C)(C)[C@@H](CO)C2(C)C)C(=O)[C@@]1(C(=O)C(C)C)C3=O | 10.2 | > 20 | 5.8 | 15.6 | 11.3
CC(C)=CCC[C@]1(C)[C@@H](CC=C(C)C)C[C@]23C[C@@H](C(C)(C)O)OC2=C(C[C@@H]2OC(C)(C)[C@@H](CO)C2(C)C)C(=O)[C@@]1(C(=O)c1ccccc1)C3=O | > 20 | 8.2 | 12.6 | 9.2 | 17.9
CC(C)=CCC[C@]1(C)[C@@H](CC=C(C)C)C[C@]23C[C@@H](C(C)(C)O)OC2=C(C[C@H]2OC(C)(C)[C@H](CO)C2(C)C)C(=O)[C@@]1(C(=O)C(C)C)C3=O | 9.3 | 9.5 | 8.8 | 7.4 | 5.6
CC(C)=CCC[C@]1(C)[C@@H](CC=C(C)C)C[C@]23C[C@@H](C(C)C)OC2=C(CC=C(C)C)C(=O)[C@@]1(C(=O)c1ccccc1)C3=O | > 20 | > 20 | > 20 | > 20 | > 20
CC(=O)O[C@H]1C(=O)[C@@]2(C)[C@H]([C@H](OC(=O)c3ccccc3)[C@]3(O)C[C@H](OC(=O)[C@H](O)[C@@H](NC(=O)c4ccccc4)c4ccccc4)C(C)=C1C3(C)C)[C@]1(OC(C)=O)CO[C@@H]1C[C@@H]2O [PACLITAXEL] | < 0.008 | < 0.008 | < 0.008 |  | 

— ChEMBL document CHEMBL2417480, “Bioactive polyprenylated acylphloroglucinol derivatives from Hypericum cohaerens” (J Nat Prod, 2013)
